# EP0173262A2, “Use of 1,4-naphthoquinone derivatives in a low concentration as immunostimulating agents” (Carnivora-Deutschland GmbH, priority 1984, dated 1986)
# Legend:
# Granulozyten = assay: Granulocyte test (modified after Brandt), phagocytosis of yeast particles; format: cell-based; settings: concentration range 10^-1 bis 10^-2 mg/ml
# From the text: (§1) Die vorliegende Erfindung beruht auf dem erstmaligen Nachweis einer Immunstimulation durch 1,4-Naphthochinon-Derivate der angegebenen Art. Die Immunstimulation läßt sich experimentell in vitro und in vivo klar nachweisen. Als geeignete immunologische Testverfahren dienen der Carbon Clearance-Test (CCT)-RES-Funktion (Biozzi, G. Benacerraf, B. und Halpern, B.N., Br. J. Exp.Pathol. 34, 441 (1953)); der Granulocyten-Test gemäß Brandt, L., Scand.J.Haematol. Suppl. 2 (1967), der vorzugsweise in modifizierter Form angewandt wird; sowie eine Chemoluminenszenz-Messung nach Allen (Allen, R.C. in "Bioluminescence and Chemiluminescence; Basic Chemistry and Analytical Applications", Eds: De Luca und Mc Elroy, S. 63-73, Academie Press, New York, 1981).
# In 20 ml Spritze 1 Tropfen Heparin (Thrombophob) und ca. 10 ml Blut abnehmen und mit 1,5% Dextran T 500 im Verhältnis 2:1 mischen. Kanüle auf der Spritz umbiegen und 30 Minuten bei 25°C absetzen lassen (ca. 2-3 ml Blut für Eigenserum abnehmen).
# Den Überstand (Leukozytensuspension) in steriles Röhrchen überspritzen; 7 Minuten bei 500 U. zentrifugieren.
# Überstand weggießen, Bodensatz (Leukozyten) 2 mal mit RPM I-Puffer bei 500 U. waschen.
# Granulozyten mit ca. 5 ml Puffer auffüllen und Zellen auf 5 x 10 x 10^6 einstellen. […] Zellsuspension in 0,475 ml 3 % iger Essigsäure mischen. In Neubauerkammer 4 Quadrate auszählen (100 Zellen/Kammer). […]
# [1] = test system: polymorphkernigen Leucocyten (PMNL); assay: Chemiluminescence measurement (modified after Allen), zymosan-stimulated PMNL; format: cell-based; settings: concentration range 10^-1 bis 10^-2 mg/ml
# From the text: as §1
# • a) PBS-Puffer ohne Ca^2+ und Mg^2+ (steril) (Fa. Biochrom, Berlin) • b) Veronal-gepufferte Kochsalzlösung mit Ca^2+, Mg^2+, Glucose und Albumin Stammlösung: 8.3 g NaCl, 1.02 g Natrium, 5,5-Diäthylbarbiturat (Veronal), 102 mg MgCl2, 22 mgCaCl2 in 150 ml H2O (bidest.) lösen, + 3.5 ml 1M IICL auf 200 ml mit H20 (bidest.) auffüllen. Von dieser Stammlösung werden 40 ml mit 140 ml H20 (bidest.) verdünnt, mit 1M HCL auf pH 7.0 eingestellt und mit II20 (bidest.) auf 200 ml auf gefüllt. […]
smiles,measurement,setting,value
CC1=CC(=O)c2c(O)cccc2C1=O [Plumbagin],effect on phagocytosis at higher concentrations,Granulozyten,ausgeprägte Phagocytosehemmung
same,effect at higher concentrations,[1],Phagocytosehemmung sowie eine Immunsuppression bzw. Cytotoxicität
